# Reference: PubChem BioAssay AID330 (DTP/NCI, 2004)
# Inconclusive results and toxic doses are left out.
# Tested on: P388 leukemia ip, CD2F1 mice, survival T/C
# Assay: NCI In Vivo Anticancer Drug Screen. Data for tumor model P388 Leukemia (intraperitoneal) in CD2F1 (CDF1) mice
# Details: endpoint: median survival time, higher = longer survival
# Method in brief: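 Mice carrying the transplanted tumor received test compound or vehicle. Survival was recorded in each group, and the value is the treated-group measurement divided by that of the vehicle-treated control group.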
smiles,measurement,setting,value
O=C1NC(c2cccc3ccccc23)Nc2ccccc21 (stereo unspecified),T/C,"dose: 8.0 mg/kg/injection, schedule: Q03HX008 (ip), vehicle: Klucel (hydroxypropylcellulose) (HPC)",118 % of control
same,T/C,"dose: 8.0 mg/kg/injection, schedule: Q03HX008 (ip), vehicle: other",109 % of control
same,T/C,"dose: 8.0 mg/kg/injection, schedule: Q03HX008 (oral), vehicle: Klucel (hydroxypropylcellulose) (HPC)",99 % of control
same,T/C,"dose: 8.0 mg/kg/injection, schedule: Q03HX008 (oral), vehicle: other",100 % of control
same,T/C,"dose: 8.0 mg/kg/injection, schedule: Q03HX016 (ip), vehicle: Klucel (hydroxypropylcellulose) (HPC)",124 % of control
same,T/C,"dose: 8.0 mg/kg/injection, schedule: Q03HX016 (ip), vehicle: other",101 % of control
same,T/C,"dose: 8.0 mg/kg/injection, schedule: Q03HX016 (oral), vehicle: Klucel (hydroxypropylcellulose) (HPC)",100 % of control
same,T/C,"dose: 8.0 mg/kg/injection, schedule: Q03HX016 (oral), vehicle: other",114 % of control
same,T/C,"dose: 8.0 mg/kg/injection, schedule: Q03HX024 (ip), vehicle: other",124 % of control
same,T/C,"dose: 8.0 mg/kg/injection, schedule: Q03HX024 (oral), vehicle: Klucel (hydroxypropylcellulose) (HPC)",101 % of control
same,T/C,"dose: 8.0 mg/kg/injection, schedule: Q03HX024 (oral), vehicle: other",108 % of control
same,T/C,"dose: 16.0 mg/kg/injection, schedule: Q01DX009 (ip), vehicle: Klucel (hydroxypropylcellulose) (HPC)",155 % of control
same,T/C,"dose: 16.0 mg/kg/injection, schedule: Q01DX009 (ip), vehicle: other",108 % of control
same,T/C,"dose: 16.0 mg/kg/injection, schedule: Q01DX009 (oral), vehicle: Klucel (hydroxypropylcellulose) (HPC)",100 % of control
same,T/C,"dose: 16.0 mg/kg/injection, schedule: Q01DX009 (oral), vehicle: other",100 % of control
same,T/C,"dose: 16.0 mg/kg/injection, schedule: Q01DX009 (sc), vehicle: Klucel (hydroxypropylcellulose) (HPC)",106 % of control
same,T/C,"dose: 16.0 mg/kg/injection, schedule: Q01DX009 (sc), vehicle: other",94 % of control
same,T/C,"dose: 16.0 mg/kg/injection, schedule: Q03HX008 (ip), vehicle: other",117 % of control
same,T/C,"dose: 16.0 mg/kg/injection, schedule: Q03HX008 (oral), vehicle: Klucel (hydroxypropylcellulose) (HPC)",95 % of control
same,T/C,"dose: 16.0 mg/kg/injection, schedule: Q03HX008 (oral), vehicle: other",104 % of control
same,T/C,"dose: 16.0 mg/kg/injection, schedule: Q03HX016 (ip), vehicle: other",123 % of control
same,T/C,"dose: 16.0 mg/kg/injection, schedule: Q03HX016 (oral), vehicle: Klucel (hydroxypropylcellulose) (HPC)",102 % of control
same,T/C,"dose: 16.0 mg/kg/injection, schedule: Q03HX016 (oral), vehicle: other",115 % of control
same,T/C,"dose: 16.0 mg/kg/injection, schedule: Q03HX024 (ip), vehicle: Klucel (hydroxypropylcellulose) (HPC)",174 % of control
same,T/C,"dose: 16.0 mg/kg/injection, schedule: Q03HX024 (oral), vehicle: Klucel (hydroxypropylcellulose) (HPC)",102 % of control
same,T/C,"dose: 32.0 mg/kg/injection, schedule: Q01DX009 (ip), vehicle: Klucel (hydroxypropylcellulose) (HPC)",177 % of control
same,T/C,"dose: 32.0 mg/kg/injection, schedule: Q01DX009 (ip), vehicle: other",102 % of control
same,T/C,"dose: 32.0 mg/kg/injection, schedule: Q01DX009 (oral), vehicle: Klucel (hydroxypropylcellulose) (HPC)",102 % of control
same,T/C,"dose: 32.0 mg/kg/injection, schedule: Q01DX009 (oral), vehicle: other",107 % of control
same,T/C,"dose: 32.0 mg/kg/injection, schedule: Q01DX009 (sc), vehicle: Klucel (hydroxypropylcellulose) (HPC)",114 % of control
same,T/C,"dose: 32.0 mg/kg/injection, schedule: Q01DX009 (sc), vehicle: other",117 % of control
same,T/C,"dose: 32.0 mg/kg/injection, schedule: Q03HX008 (ip), vehicle: Klucel (hydroxypropylcellulose) (HPC)",173 % of control
same,T/C,"dose: 32.0 mg/kg/injection, schedule: Q03HX008 (oral), vehicle: Klucel (hydroxypropylcellulose) (HPC)",99 % of control
same,T/C,"dose: 32.0 mg/kg/injection, schedule: Q03HX008 (oral), vehicle: other",122 % of control
same,T/C,"dose: 32.0 mg/kg/injection, schedule: Q03HX016 (ip), vehicle: Klucel (hydroxypropylcellulose) (HPC)",200 % of control
same,T/C,"dose: 32.0 mg/kg/injection, schedule: Q03HX016 (oral), vehicle: Klucel (hydroxypropylcellulose) (HPC)",110 % of control
same,T/C,"dose: 32.0 mg/kg/injection, schedule: Q03HX024 (oral), vehicle: Klucel (hydroxypropylcellulose) (HPC)",109 % of control
same,T/C,"dose: 32.0 mg/kg/injection, schedule: Q03HX024 (oral), vehicle: other",168 % of control
same,T/C,"dose: 64.0 mg/kg/injection, schedule: Q01DX001 (ip), vehicle: Klucel (hydroxypropylcellulose) (HPC)",113 % of control
same,T/C,"dose: 64.0 mg/kg/injection, schedule: Q01DX001 (ip), vehicle: other",99 % of control
same,T/C,"dose: 64.0 mg/kg/injection, schedule: Q01DX001 (oral), vehicle: Klucel (hydroxypropylcellulose) (HPC)",100 % of control
same,T/C,"dose: 64.0 mg/kg/injection, schedule: Q01DX001 (oral), vehicle: other",94 % of control
same,T/C,"dose: 64.0 mg/kg/injection, schedule: Q01DX009 (ip), vehicle: Klucel (hydroxypropylcellulose) (HPC)",194 % of control
same,T/C,"dose: 64.0 mg/kg/injection, schedule: Q01DX009 (ip), vehicle: other",120 % of control
same,T/C,"dose: 64.0 mg/kg/injection, schedule: Q01DX009 (oral), vehicle: Klucel (hydroxypropylcellulose) (HPC)",108 % of control
same,T/C,"dose: 64.0 mg/kg/injection, schedule: Q01DX009 (oral), vehicle: other",118 % of control
